Experimental findings from ChEMBL document CHEMBL4229501, “Synthesis, characterization and nociceptive screening of new VV-hemorphin-5 analogues” (Bioorg Med Chem Lett, 2018) are described below.

Activity calls are given as the source filed them. The rule behind the calls is not given here. Square brackets hold non-standard residues; d marks the D form. Peptide text beside a SMILES is read from it. Aib = CC(C)(N)C(=O)O

In data set [1] the test system is Mus musculus. The data set can be described thus: Antinociceptive activity in albino ICR mouse assessed as decrease in number of acetic acid-induced abdominal constriction at 25 to 100 ug/mouse, icv administered 5 mins prior to acetic acid challenge and measured every 5 mins for 30 mins post acetic acid challenge. The class given is functional, organism-based.
The subject of data set [2] is Mus musculus. Kind of data set: Antinociceptive activity in albino ICR mouse assessed as decrease in number of acetic acid-induced abdominal constriction at 25 ug/mouse, icv administered 5 mins prior to acetic acid challenge and measured every 5 mins for 30 mins post acetic acid challenge. The format is functional, organism-based.
The test system of data set [3] is Mus musculus. The data set can be described thus: Antinociceptive activity in albino ICR mouse assessed as decrease in number of acetic acid-induced abdominal constriction at 50 ug/mouse, icv administered 5 mins prior to acetic acid challenge and measured every 5 mins for 30 mins post acetic acid challenge. The class given is functional, organism-based.
In data set [4] the test system is Mus musculus. The data set can be described thus: Antinociceptive activity in albino ICR mouse assessed as decrease in number of acetic acid-induced abdominal constriction at 100 ug/mouse, icv administered 5 mins prior to acetic acid challenge and measured every 5 mins for 10 mins post acetic acid challenge. The format is functional, organism-based.
Data set [5] is described as follows: Anodic potential of the compound at pH 5.02 by differential pulse voltammetry. The format is physicochemical.
Data set [6] in a line: Anodic potential of the compound at pH 9.20 by differential pulse voltammetry. The format is physicochemical. Conditions: pH 9.2.
Data set [7] in a line: Anodic potential of the compound at pH 8.10 by differential pulse voltammetry. The format is physicochemical. Conditions: pH 8.1.
A short description of data set [8]: Anodic potential of the compound at pH 10.20 by differential pulse voltammetry. The class given is physicochemical. Conditions: pH 10.2.
Data set [9] in a line: Anodic potential of the compound at pH 6.86 by differential pulse voltammetry. The format is physicochemical.
Data set [10] in a line: Anodic potential of the compound at pH 6.02 by differential pulse voltammetry. The format is physicochemical.
The nature of data set [11]: Dissociation constant, pKa of the compound at pH 5.02 to 10.20 by cyclic voltammetry. The class given is physicochemical.
Data set [12] has as its system Mus musculus. The data set can be described thus: Antinociceptive activity in albino ICR mouse assessed as decrease in number of acetic acid-induced abdominal constriction at 100 ug/mouse, icv administered 5 mins prior to acetic acid challenge and measured every 5 mins for 15 mins post acetic acid challenge. The format is functional, organism-based.
In data set [13] the test system is Mus musculus. The data set can be described thus: Antinociceptive activity in albino ICR mouse assessed as decrease in number of acetic acid-induced abdominal constriction at 100 ug/mouse, icv administered 5 mins prior to acetic acid challenge and measured at 5 mins post acetic acid challenge. The class given is functional, organism-based.
Data set [14] has as its system Mus musculus. Kind of data set: Antinociceptive activity in albino ICR mouse assessed as decrease in number of acetic acid-induced abdominal constriction at 25 to 50 ug/mouse, icv administered 5 mins prior to acetic acid challenge and measured every 5 mins for 30 mins post acetic acid challenge. The format is functional, organism-based.
For data set [15], the system named is Mus musculus. The data set can be described thus: Antinociceptive activity in albino ICR mouse assessed as decrease in number of acetic acid-induced abdominal constriction at 50 to 100 ug/mouse, icv administered 5 mins prior to acetic acid challenge and measured every 5 mins for 30 mins post acetic acid challenge. The format is functional, organism-based.

For `CC(C)[C@H](N)C(=O)N[C@H](C(=O)N[C@@H](Cc1ccc(O)cc1)C(=O)N1CCC[C@H]1C(=O)N[C@@H](Cc1c[nH]c2ccccc12)C(=O)N[C@H](C(=O)N[C@H](CN)C(N)=O)[C@@H](C)O)C(C)C`, the result in data set [1] was Active.

Turning to `CC(C)[C@H](N)C(=O)N[C@H](C(=O)N[C@@H](Cc1ccc(O)cc1)C(=O)N1CCC[C@H]1C(=O)N[C@@H](Cc1c[nH]c2ccccc12)C(=O)N[C@H](C(=O)N[C@H](CCCN)C(N)=O)[C@@H](C)O)C(C)C`, in data set [2], the result was inactive. Besides, in [3], the outcome was Active.

Regarding `CC(C)[C@H](N)C(=O)N[C@H](C(=O)N[C@@H](Cc1ccc(O)cc1)C(=O)N1CCC[C@H]1C(=O)N[C@@H](Cc1c[nH]c2ccccc12)C(=O)N[C@H](C(=O)N[C@H](CCCCN)C(N)=O)[C@@H](C)O)C(C)C`, the outcome in [2] and in [4] was Active.

A word on the pKa: it is the negative logarithm of the acid dissociation constant. The low end stands for a group that gives up its proton readily, the high end for a group that holds its proton tightly. Consider `CC[C@H](C)[C@H](N)C(=O)N[C@H](C(=O)N[C@H](C(=O)N[C@@H](Cc1ccc(O)cc1)C(=O)N1CCC[C@H]1C(=O)N[C@@H](Cc1c[nH]c2ccccc12)C(=O)N[C@H](C(=O)N[C@@H](CCC(N)=O)C(N)=O)[C@@H](C)O)C(C)C)C(C)C`, for which the Activity in data set [5] is listed as 0.213 V; in data set [6] it was 0.067 V; in data set [7], 0.062 V; in [8], 0.06 V; in [9], 0.11 V; in data set [10], 0.16 V. In data set [11], this compound came in with a pKa of 8.01.

For `CC(C)[C@H](N)C(=O)N[C@H](C(=O)N[C@@H](Cc1ccc(O)cc1)C(=O)N1CCC[C@H]1C(=O)N[C@@H](Cc1c[nH]c2ccccc12)C(=O)N[C@H](C(=O)N[C@H](CCN)C(N)=O)[C@@H](C)O)C(C)C`, the outcome in [12] was inactive. The result in [13] was Active. In [14], the Activity result is “Dose-dependent effect”.

H-VVYPWTQ-NH2: the Activity in data set [5] is 0.225 V; in data set [6] it was 0.046 V; in data set [7], 0.046 V; in data set [8], 0.046 V; in data set [9], 0.048 V; in data set [10] it was 0.151 V. The result in data set [2] was inactive. In [15], the result was Active. In data set [11], this compound displayed a pKa of 7.13.

On to `CC(C)[C@H](N)C(=O)N[C@H](C(=O)N[C@@H](Cc1ccc(O)cc1)C(=O)N1CCC[C@H]1C(=O)N[C@@H](Cc1c[nH]c2ccccc12)C(=O)N[C@H](C(=O)N[C@@H](CN)C(N)=O)[C@@H](C)O)C(C)C`, for which the Activity is 0.225 V in data set [5]; 0.008 V in data set [6]; 0.085 V in [7]; 0.001 V in data set [8]; 0.15 V in [9]; 0.207 V in data set [10]. Also, the pKa in data set [11] is 9.23.

With `CC[C@H](C)[C@@H](N)C(=O)N[C@H](C(=O)N[C@H](C(=O)N[C@@H](Cc1ccc(O)cc1)C(=O)N1CCC[C@H]1C(=O)N[C@@H](Cc1c[nH]c2ccccc12)C(=O)N[C@H](C(=O)N[C@@H](CCC(N)=O)C(N)=O)[C@@H](C)O)C(C)C)C(C)C`, in data set [4], the outcome was inactive. Further, the Activity entry in data set [14] is “Dose-dependent effect”.

Regarding `CC(C)[C@H](N)C(=O)N[C@H](C(=O)N[C@@H](Cc1ccc(O)cc1)C(=O)N1CCC[C@H]1C(=O)N[C@@H](Cc1c[nH]c2ccccc12)C(=O)N[C@H](C(=O)N[C@@H](CCCN)C(N)=O)[C@@H](C)O)C(C)C`, the Activity is recorded as 0.225 V in data set [5]; 0.082 V in [6]; 0.075 V in data set [7]; 0.079 V in [8]; 0.117 V in data set [9]; 0.175 V in data set [10]. For the same compound, the pKa in data set [11] came to 7.83.

As for `CC(C)[C@H](N)C(=O)N[C@H](C(=O)N[C@@H](Cc1ccc(O)cc1)C(=O)N1CCC[C@H]1C(=O)N[C@@H](Cc1c[nH]c2ccccc12)C(=O)N[C@H](C(=O)N[C@@H](CCCCN)C(N)=O)[C@@H](C)O)C(C)C`, the Activity is given as 0.211 V in [5]; 0.055 V in data set [6]; 0.071 V in data set [7]; 0.057 V in [8]; 0.125 V in [9]; 0.15 V in [10]. This compound also yielded a pKa in data set [11] of 8.24.

On to `CC(C)[C@H](N)C(=O)N[C@H](C(=O)N[C@@H](Cc1ccc(O)cc1)C(=O)N1CCC[C@H]1C(=O)N[C@@H](Cc1c[nH]c2ccccc12)C(=O)N[C@H](C(=O)N[C@@H](CCN)C(N)=O)[C@@H](C)O)C(C)C`, for which the Activity in data set [5] was determined as 0.23 V; in data set [6], 0.001 V; in [7], 0.009 V; in data set [8], 0 V; in [9], 0.07 V; in data set [10], 0.13 V. The compound also returned a pKa in [11] of 8.12.

For the compound `CC(C)[C@H](NC(=O)[C@@H](NC(=O)C(C)(C)N)C(C)C)C(=O)N[C@@H](Cc1ccc(O)cc1)C(=O)N1CCC[C@H]1C(=O)N[C@@H](Cc1c[nH]c2ccccc12)C(=O)N[C@H](C(=O)N[C@@H](CCC(N)=O)C(N)=O)[C@@H](C)O` (H-[Aib]VVYPWTQ-NH2), the Activity was found to be 0.232 V in data set [5]; 0.031 V in data set [6]; 0.025 V in data set [7]; 0.03 V in data set [8]; 0.101 V in data set [9]; 0.175 V in [10]. Further, the outcome in data set [1] was inactive. The pKa in data set [11] worked out at 8.17.
